Source: patent US11297838B2, “Pesticidal compositions and methods” (CORTEVA AGRISCIENCE LLC, priority 2018, dated 2022)
Read-outs that look alike come from different tables or passages of the source.

Assays:
[1] = test system: Beet Armyworm (Spodoptera exigua, LAPHEG); assay: Insecticidal test for beet armyworm (BAW), 128-well diet tray assay; format: in vivo; details: 168 h, read-out: BAW rating, % Control (or Mortality)
Description: Insecticidal Test for Beet Armyworm (Spodoptera exigua, LAPHEG) (“BAW”)
Bioassays on beet armyworm (BAW; Spodoptera exigua: Lepidoptera) are conducted using a 128-well diet tray assay. One to five second instar BAW larvae are placed in each well (3 mL) of the diet tray that had been previously filled with 1 mL of artificial diet to which 50 μg/cm^2 of the test compound (dissolved in 50 μL of 90:10 acetone-water mixture) had been applied (to each of eight wells) and then allowed to dry. Trays are covered with a clear self-adhesive cover, vented to allow gas exchange, and held at 25° C., 14:10 light-dark for five to seven days. Percent mortality is recorded for the larvae in each well; activity in the eight wells is then averaged. In the reporting of the results, the “BAW & CL Rating Table” was used.

[2] = test system: Cabbage Looper (Trichloplusia ni, TRIPNI); assay: Insecticidal test for cabbage looper (CL), 128-well diet tray assay; format: in vivo; details: Trichoplusia ni, 168 h, read-out: CL rating, % Control (or Mortality)
Description: Insecticidal Test for Cabbage Looper (Trichloplusia ni, TRIPNI) (“CL”)
Bioassays on cabbage looper (CL; Trichloplusia ni: Lepidoptera) are conducted using a 128-well diet tray assay. One to five second instar CL larvae are placed in each well (3 mL) of the diet tray that had been previously filled with 1 mL of artificial diet to which 50 μg/cm^2 of the test compound (dissolved in 50 μL of 90:10 acetone-water mixture) had been applied (to each of eight wells) and then allowed to dry. Trays are covered with a clear self-adhesive cover, vented to allow gas exchange, and held at 25° C., 14:10 light-dark for five to seven days. Percent mortality is recorded for the larvae in each well; activity in the eight wells is then averaged. In the reporting of the results, the “BAW & CL Rating Table” was used.

[3] = 50 μg/cm^2 on artificial diet, second instar larvae, five to seven days, 25° C.

Structure (SMILES)	mortality at 50 µg/cm2 [1, 3] [%]	mortality at 50 µg/cm2 [2, 3] [%]	mortality at 50 µg/cm2 [1] [%]	mortality at 50 µg/cm2 [2] [%]
Cc1ccc(C(C)C)c(N2C(=O)CS/C2=N\C(=O)OCCc2ccc(-c3ncn(-c4ccc(OC(F)(F)F)cc4)n3)cc2)c1 [A1, 4-(1-(4-(trifluoromethoxy)phenyl)-1H-1,2,4-triazol-3-yl)phenethyl (Z)-(3-(2-isopropyl-5-methylphenyl)-4-oxothiazolidin-2-ylidene)carbamate]	50 to 100	50 to 100	–	–
Cc1ccc(C(C)C)c(N2C(=O)CS/C2=N\C(=O)Oc2ccc(-c3ncn(-c4ccc(OC(F)(F)F)cc4)n3)cc2)c1 [A3, 4-(1-(4-(Trifluoromethoxy)phenyl)-1H-1,2,4-triazol-3-yl)phenyl (Z)-(3-(2-isopropyl-5-methylphenyl)-4-oxothiazolidin-2-ylidene)carbamate]	–	–	0	0
Cc1ccc(C(C)C)c(N2C(=O)CS/C2=N\C(=O)OCC(F)(F)c2ccc(-c3ncn(-c4ccc(OC(F)(F)F)cc4)n3)cc2)c1 [A4, 2,2-difluoro-2-(4-(1-(4-(trifluoromethoxy)phenyl)-1H-1,2,4-triazol-3-yl)phenyl)ethyl (Z)-(3-(2-isopropyl-5-methylphenyl)-4-oxothiazolidin-2-ylidene)carbamate]	50 to 100	50 to 100	–	–
Cc1ccc(C(C)C)c(N2C(=O)CS/C2=N\C(=O)OCC(F)c2ccc(-c3ncn(-c4ccc(OC(F)(F)F)cc4)n3)cc2)c1 (stereo not drawn) [A20, 2-fluoro-2-(4-(1-(4-(trifluoromethoxy)phenyl)-1H-1,2,4-triazol-3-yl)phenyl)ethyl (Z)-(3-(2-isopropyl-5-methylphenyl)-4-oxothiazolidin-2-ylidene)carbamate]	50 to 100	50 to 100	–	–
Cc1ccc(OCC(F)(F)F)c(N2C(=O)CS/C2=N\C(=O)OCC(F)c2ccc(-c3ncn(-c4ccc(OC(F)(F)F)cc4)n3)cc2)c1 (stereo not drawn) [A21, 2-Fluoro-2-(4-(1-(4-(trifluoromethoxy)phenyl)-1H-1,2,4-triazol-3-yl)phenyl)ethyl (Z)-(3-(5-methyl-2-(2,2,2-trifluoroethoxy)phenyl)-4-oxothiazolidin-2-ylidene)carbamate]	50 to 100	50 to 100	–	–
O=C(/N=C1\SCC(=O)N1c1cc(Cl)ccc1OCC(F)(F)F)OCC(F)c1ccc(-c2ncn(-c3ccc(OC(F)(F)F)cc3)n2)cc1 (stereo not drawn) [A22, 2-Fluoro-2-(4-(1-(4-(trifluoromethoxy)phenyl)-1H-1,2,4-triazol-3-yl)phenyl)ethyl (Z)-(3-(5-chloro-2-(2,2,2-trifluoroethoxy)phenyl)-4-oxothiazolidin-2-ylidene)carbamate]	50 to 100	50 to 100	–	–
CC(C)c1ccc(Cl)cc1N1C(=O)CS/C1=N\C(=O)OCC(F)c1ccc(-c2ncn(-c3ccc(OC(F)(F)F)cc3)n2)cc1 (stereo not drawn) [A23, 2-Fluoro-2-(4-(1-(4-(trifluoromethoxy)phenyl)-1H-1,2,4-triazol-3-yl)phenyl)ethyl (Z)-(3-(5-chloro-2-isopropylphenyl)-4-oxothiazolidin-2-ylidene)carbamate]	50 to 100	50 to 100	–	–
CC(C)c1ccccc1N1C(=O)CS/C1=N\C(=O)OCC(F)c1ccc(-c2ncn(-c3ccc(OC(F)(F)C(F)(F)F)cc3)n2)cc1 (stereo not drawn) [A24, 2-Fluoro-2-(4-(1-(4-(perfluoroethoxy)phenyl)-1H-1,2,4-triazol-3-yl)phenyl)ethyl (Z)-(3-(2-isopropylphenyl)-4-oxothiazolidin-2-ylidene)carbamate]	50 to 100	50 to 100	–	–
CC(C)c1ccc(Cl)cc1N1C(=O)CS/C1=N\C(=O)OCC(F)c1ccc(-c2ncn(-c3ccc(OC(F)(F)C(F)(F)F)cc3)n2)cc1 (stereo not drawn) [A25, 2-Fluoro-2-(4-(1-(4-(perfluoroethoxy)phenyl)-1H-1,2,4-triazol-3-yl)phenyl)ethyl (Z)-(3-(5-chloro-2-isopropylphenyl)-4-oxothiazolidin-2-ylidene)carbamate]	50 to 100	0 to 50	–	–
